Experimental data as given in ChEMBL document CHEMBL1201862, “PubChem BioAssay data set” (2004).
Active and inactive are the calls of the source.

What was measured:
HeLa = assay: viability loss in HeLa cells – cell-based, ATP luminescence, cherry-pick samples, cytotoxicity control, dose response (AID 687004); type: functional; details: Homo sapiens
Coagulation factor XII = target: T1, Coagulation factor XII (Homo sapiens, UniProt P00748); type: functional;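 also: activated factor XIIa alpha cleaving a fluorogenic AMC peptide substrate; inhibitor potency from loss of enzyme activity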
T1 sequence (P00748 whole entry): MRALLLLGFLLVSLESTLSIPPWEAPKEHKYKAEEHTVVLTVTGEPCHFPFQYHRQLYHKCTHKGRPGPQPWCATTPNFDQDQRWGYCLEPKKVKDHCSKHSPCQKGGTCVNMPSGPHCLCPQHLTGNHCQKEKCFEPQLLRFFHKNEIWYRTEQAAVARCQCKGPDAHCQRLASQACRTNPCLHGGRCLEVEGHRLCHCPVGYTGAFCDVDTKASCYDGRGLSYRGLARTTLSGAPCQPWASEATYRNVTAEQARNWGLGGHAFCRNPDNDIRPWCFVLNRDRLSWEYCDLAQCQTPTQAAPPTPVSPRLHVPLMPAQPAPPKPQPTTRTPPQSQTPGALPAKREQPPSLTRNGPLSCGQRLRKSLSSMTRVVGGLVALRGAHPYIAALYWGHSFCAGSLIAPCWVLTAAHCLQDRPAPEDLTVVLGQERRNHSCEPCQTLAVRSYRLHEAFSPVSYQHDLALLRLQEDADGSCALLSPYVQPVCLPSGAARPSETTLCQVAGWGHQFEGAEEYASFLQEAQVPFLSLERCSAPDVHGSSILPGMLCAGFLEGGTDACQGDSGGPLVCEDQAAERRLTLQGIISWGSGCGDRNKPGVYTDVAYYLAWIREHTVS

[1] = target: T2, COUP transcription factor 2 (Homo sapiens, UniProt P24468); assay: Luminescence-based cell-based high throughput dose response assay to identify inhibitors of COUP-TFII (NR2F2).; type: functional;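 also: HEK293 cells transiently cotransfected with COUP-TFII expression vector and reporter; luciferase reporter luminescence driven by COUP-TFII from the pX2-168 reporter plasmid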
T2 sequence (P24468 whole entry): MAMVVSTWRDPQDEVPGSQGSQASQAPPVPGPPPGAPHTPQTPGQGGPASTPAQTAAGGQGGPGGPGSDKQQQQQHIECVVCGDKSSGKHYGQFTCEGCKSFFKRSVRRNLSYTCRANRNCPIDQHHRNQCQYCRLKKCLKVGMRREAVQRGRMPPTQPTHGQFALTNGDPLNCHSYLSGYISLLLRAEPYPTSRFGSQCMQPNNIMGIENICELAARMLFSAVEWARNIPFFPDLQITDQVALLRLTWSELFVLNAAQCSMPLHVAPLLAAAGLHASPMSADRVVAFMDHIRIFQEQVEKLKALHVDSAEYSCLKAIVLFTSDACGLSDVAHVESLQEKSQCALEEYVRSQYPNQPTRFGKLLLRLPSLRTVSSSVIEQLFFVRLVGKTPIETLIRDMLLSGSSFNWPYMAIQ

cells [2] = type: functional, cell-based; details: HEK-CNG
Galanin receptor type 3 = Galanin receptor type 3 (Homo sapiens, UniProt O60755); assay: Fluorescence-based cell-based primary high throughput dose response assay to identify antagonists of the Galanin Receptor 3 (GalR3).; type: functional
cells [3] = type: functional, cell-based
A-375 [4] = assay: MITF: Counter assay: A375 proliferation Measured in Cell-Based System Using Plate Reader - 2084-03_Inhibitor_Dose_DryPowder_Activity. [Related pubchem assays (depositor defined):AID488944]; type: functional; details: Homo sapiens
cells [5] = type: functional, cell-based; remark: listed apart in the source
A-375 [6] = assay: proliferation inhibition in MITF-low A375 cells – cell-based, cherry-pick samples, set 2, counter-screen for MITF modulator project, dose response (AID 540335); type: functional; details: Homo sapiens
[7] = target: Fructose-bisphosphate aldolase (Mycobacterium tuberculosis, UniProt P9WQA3); assay: Fluorescence-based biochemical high throughput dose response assay for inhibitors of the fructose-bisphosphate aldolase (FBA) of M. tuberculosis.; type: functional
[8] = target: Histone-lysine N-methyltransferase NSD2 (Homo sapiens, UniProt O96028); type: biochemical
Major prion protein = Major prion protein (Homo sapiens, UniProt P04156); type: functional, cell-based
cells [9] = assay: cells
[10] = target: T3, High affinity choline transporter 1 (Homo sapiens, UniProt Q9GZV3); assay: human choline transporter blockers, potency – cell-based, 5-point CRC, membrane potential dye, dose response (AID 504840); type: functional
T3 sequence (Q9GZV3 whole entry): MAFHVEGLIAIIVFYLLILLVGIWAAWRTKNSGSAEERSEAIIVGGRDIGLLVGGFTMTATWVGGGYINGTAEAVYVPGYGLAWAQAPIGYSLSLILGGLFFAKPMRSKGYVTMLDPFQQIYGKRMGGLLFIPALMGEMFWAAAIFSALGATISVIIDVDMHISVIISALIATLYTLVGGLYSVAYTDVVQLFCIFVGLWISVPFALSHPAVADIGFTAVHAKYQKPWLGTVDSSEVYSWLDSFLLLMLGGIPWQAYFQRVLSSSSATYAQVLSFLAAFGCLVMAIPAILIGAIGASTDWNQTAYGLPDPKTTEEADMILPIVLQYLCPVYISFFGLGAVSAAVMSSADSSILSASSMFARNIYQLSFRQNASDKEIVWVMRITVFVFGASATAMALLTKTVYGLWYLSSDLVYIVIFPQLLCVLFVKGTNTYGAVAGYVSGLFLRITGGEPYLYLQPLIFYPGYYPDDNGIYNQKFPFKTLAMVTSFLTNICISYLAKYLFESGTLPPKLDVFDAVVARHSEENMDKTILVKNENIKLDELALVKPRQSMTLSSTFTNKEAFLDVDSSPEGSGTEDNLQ

[11] = target: T4, Short transient receptor potential channel 4 (Mus musculus, UniProt Q9QUQ5); assay: calcium entry via TRPC4 opening agents – cell-based, HEK293 TRPC4/mu-opioid, Fluo-4 calcium, dose response (AID 434937); type: functional
T4 sequence (Q9QUQ5 whole entry): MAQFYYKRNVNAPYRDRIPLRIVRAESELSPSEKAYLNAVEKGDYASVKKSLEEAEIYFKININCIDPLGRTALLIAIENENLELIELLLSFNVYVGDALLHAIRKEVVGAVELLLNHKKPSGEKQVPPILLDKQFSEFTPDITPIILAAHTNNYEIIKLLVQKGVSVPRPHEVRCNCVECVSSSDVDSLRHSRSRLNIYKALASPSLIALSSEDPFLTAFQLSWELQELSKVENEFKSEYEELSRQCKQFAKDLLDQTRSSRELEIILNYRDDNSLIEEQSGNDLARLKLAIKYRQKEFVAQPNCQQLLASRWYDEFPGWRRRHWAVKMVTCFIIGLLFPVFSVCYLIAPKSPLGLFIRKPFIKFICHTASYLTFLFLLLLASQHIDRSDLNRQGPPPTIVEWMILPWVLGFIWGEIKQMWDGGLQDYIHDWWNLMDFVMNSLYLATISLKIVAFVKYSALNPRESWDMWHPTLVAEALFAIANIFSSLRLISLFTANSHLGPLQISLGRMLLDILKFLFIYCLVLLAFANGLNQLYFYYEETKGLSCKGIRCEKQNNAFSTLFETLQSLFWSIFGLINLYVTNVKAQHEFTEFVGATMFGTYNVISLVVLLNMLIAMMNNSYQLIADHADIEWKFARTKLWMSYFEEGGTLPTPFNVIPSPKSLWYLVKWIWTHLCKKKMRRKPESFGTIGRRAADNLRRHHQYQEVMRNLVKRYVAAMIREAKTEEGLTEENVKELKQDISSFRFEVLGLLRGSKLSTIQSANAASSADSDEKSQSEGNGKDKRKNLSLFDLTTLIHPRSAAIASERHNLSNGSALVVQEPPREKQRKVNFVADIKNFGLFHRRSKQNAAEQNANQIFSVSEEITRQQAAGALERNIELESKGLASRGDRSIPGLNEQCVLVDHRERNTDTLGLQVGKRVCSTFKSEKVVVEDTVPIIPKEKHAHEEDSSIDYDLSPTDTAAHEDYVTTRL

[12] = HGIII-sPLA2 enzyme inhibition potency – biochemical, QFRET, IC50, dose response (AID 743457);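 also: green fluorescence rise as the enzyme cleaves BODIPY PC-A2 in liposomes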
[13] = fluconazole-exposed Candida albicans growth modulators – fluorescence, retest, confirmation (AID 2467); type: functional, cell-based
[14] = NIH-3T3 fibroblast cytotoxicity, dose response, cytotoxicity control, cell-based, fluorescence, Alamar Blue, secondary assay (AID 2327); type: functional;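 also: NIH-3T3 mouse fibroblasts cultured with fluconazole at 8 µg/mL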
[15] = general mammalian cell viability loss – activator set, cherry-pick, cytotoxicity control for miR-122 modulator project, dose response (AID 720690); type: functional, cell-based;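 also: HEK293T human cells scored for general mammalian cytotoxicity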
INS1 = assay: INS-1E survival protection against cytokine death – cell-based, luminescence, retest, dose response (AID 449756); type: functional; details: Rattus norvegicus;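 also: cell death triggered by IL-1 beta plus TNF-alpha plus IFN-gamma mixture; protective hits raise ATP signal compared with cytokine alone wells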
[16] = THP-1 cell cytotoxicity, dose response, cytotoxicity control for non-replicating M. tuberculosis project (AID 489025); type: functional
[17] = HepG2 cell cytotoxicity, dose response, cytotoxicity control for non-replicating M. tuberculosis project (AID 489018); type: functional; details: Mycobacterium tuberculosis
[18] = general mammalian cell viability loss – inhibitor set, cherry-pick, set 2, cytotoxicity control for miR-122 modulator project, dose response (AID 720697); type: functional, cell-based
[19] = Vero E6 cell cytotoxicity, dose response, cytotoxicity control for non-replicating M. tuberculosis project, secondary assay (AID 492998); type: functional, VeroE6; details: Vero C1008
[20] = IGROV1 cell killing – plate reader, dry powder samples, PAX8 inhibitor project, dose response (AID 743043); type: functional, cell-based; details: IGROV-1
[21] = OVCAR8 cell viability loss – plate reader, dry powder samples, PAX8 project, dose response (AID 743197); type: functional, cell-based; details: OVCAR-8
[22] = OVCAR-3 cell viability loss – plate reader, dry powder samples, PAX8 inhibitor project, dose response (AID 743044); type: functional, cell-based
[23] = toxicity toward immortalized ovarian surface epithelium – cell-based, plate reader, dry powder samples, cytotoxicity control for PAX8 inhibitor project, dose response (AID 743045); type: functional
Paired box protein Pax-8 = Paired box protein Pax-8 (Homo sapiens, UniProt Q06710); assay: PAX8 transcriptional activity inhibition in RMG-I – RMG-I cells, luciferase, cherry-pick, dose response (AID 687027); type: functional, cell-based;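 also: luciferase reporter driven by Pax8 target thyroperoxidase promoter measured by SteadyGlo luminescence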
[24] = Late stage assay provider results from the probe development effort to identify inhibitors of the Plasmodium falciparum M17 Leucine Aminopeptidase (M17LAP): radiolabel-based cell-based dose response assay to identify compounds that inhibit P. falciparum growth in RBCs Set 2.; type: functional
[25] = HeLa cell viability loss – plate reader, dry powder, cytotoxicity control, dose response (AID 651946); type: functional, cell-based
[26] = anti-trypanosomal activity in BESM host cells – imaging, CA-I/72 strain, bovine embryo skeletal muscle, dry powder, dose response (AID 651885); type: functional, cell-based
[27] = YAP1 overexpression rescue of CTGF inhibition – DLD1 cells, RT-qPCR, cherry-pick, mechanism study for YAP1 pathway inhibitor project, dose response (AID 1053127); type: functional, cell-based; details: DLD-1
[28] = CTGF mRNA reduction in DLD1 cells – cell-based, DLD1 colon cancer, RT-qPCR, cherry-pick, dose response (AID 1053122); type: functional; details: Cancer cell lines
[29] = viability loss in HEK293 kidney cells – cell-based, cherry-picks, set 5, cytotoxicity control, dose response (AID 1053117); type: functional

Cc1ccc(CSc2ncnc3c2cnn3-c2ccc(C)cc2)cc1
AC50 (HeLa): 48.5 µM (active)
IC50 (Coagulation factor XII): > 50 µM (inactive)

Cc1c(Cl)cccc1NC(=O)N1CCCN(c2nc(-c3ccccc3)ns2)CC1
IC50 [1]: 13.4 µM (inactive)
EC50 (cells [2]): > 29.9 µM (inactive)
IC50 (Galanin receptor type 3): 1.53 µM (active)

Cc1ccc(Nc2nnc(-c3ccccc3N)o2)cc1C
EC50 (cells [3]): > 350 µM (not active)
AC50 (A-375 [4]): > 35 µM (active)
EC50 (cells [5]): 7.3 µM (active)
AC50 (A-375 [6]): > 35 µM (active)
IC50 [7]: 1.45 µM (active)

COc1cc(/C=C2\C(=N)N3N=C(S(C)(=O)=O)SC3=NC2=O)ccc1OC(=O)c1cccs1
AC50 [8]: > 20 µM (inactive)

COc1cccc(NC(=O)CCSc2ccc3ccccc3n2)c1
IC50 (Major prion protein): 3.97 µM (active)
IC50 (cells [9]): > 138 µM (inactive)

O=C(NNC(=S)NC(=O)C12CC3CC(CC(C3)C1)C2)c1ccncc1
IC50 [10]: 28.8 µM (active)
EC50 [11]: 4.22 µM (active)
IC50 [12]: > 122 µM (inactive)
EC50 [13]: 3.2 µM (active)
EC50 [14]: 26.4 µM (active)

N#CC1=C(N)Oc2c(ccc3cccnc23)C1c1ccccc1 (stereo not given)
AC50 [15]: 42.5 µM (active)
AC50 (INS1): 4.54 µM (active)
CC50 [16]: 4.84 µM (active)
CC50 [17]: > 20 µM (active)
AC50 [18]: 2.47 µM (active)
CC50 [19]: 5.56 µM (active)

C[C@H](CO)N1C[C@H](C)[C@H](CN(C)Cc2ccc(C(=O)Nc3ccccc3N)cc2)Oc2ccc(N(C)C)cc2C1=O
AC50 [20]: 23.4 µM (active)
AC50 [21]: 33.7 µM (active)
AC50 [22]: 43.9 µM (active)
AC50 [23]: 56.3 µM (active)
AC50 (Paired box protein Pax-8): 10.5 µM (active)

CCCCOc1ccc(CN(O)C(=O)c2ccccc2)cc1
IC50 [24]: 13.6 µM (inactive)

COc1ccccc1CSc1nnc(-c2ccccc2)o1
AC50 [25]: > 52 µM (inactive)

CNC[C@H]1Oc2c(NC(=O)c3ccccc3)cccc2C(=O)N(C(C)C)C[C@@H]1C
IC50 [26]: > 20 µM (inactive)

CO[C@@H](CN(C)S(=O)(=O)c1ccc(C)cc1)[C@H](C)CN([C@@H](C)CO)S(=O)(=O)c1cccc(Cl)c1
AC50 [27]: 17.7 µM (active)
AC50 [28]: 16.4 µM (active)

C[C@@H]1CN([C@H](C)CO)C(=O)c2cc(NC(=O)C3CCCCC3)ccc2O[C@H]1CN(C)Cc1ccc(-c2ccccc2)cc1
AC50 [29]: > 52 µM (inactive)
